# Results from patent publication US9346815B2, “5-chloro-2-difluoromethoxyphenyl pyrazolopyrimidine compounds, compositions and methods of use thereof” (Genentech, Inc., priority 2014, dated 2016).
# What was measured:
# [1] = test system: JAK1-dependent STAT6 phosphorylation downstream of IL-13 stimulation in TF-1 human erythroleukemia cells; assay: JAK1 pathway assay in TF-1 cells (IL-13-pSTAT6, MSD); assay type: cell-based; conditions: Homo sapiens, TF-1, TF-1 cells, read-out: IL13-pSTAT6 EC50_TF-1
# Procedure: JAK1 Pathway Assay in Cell Lines was Carried Out as Follows:
# Inhibitor potency (EC50) was determined in cell-based assays designed to measure JAK1 dependent STAT phosphorylation.
# In one assay approach, TF-1 human erythroleukemia cells obtained from the American Type Culture Collection (ATCC; Manassas, Va.) were used to measure JAK1-dependent STAT6 phosphorylation downstream of IL-13 stimulation. Prior to use in the assays, TF-1 cells were starved of GM-CSF overnight in OptiMEM medium (Life Technologies, Grand Island, N.Y.) supplemented with 0.5% charcoal/dextran stripped fetal bovine serum (FBS), 0.1 mM non-essential amino acids (NEAA), and 1 mM sodium pyruvate. The assays were run in 384-well plates in serum-free OptiMEM medium using 300,000 cells per well. In a second assay approach, BEAS-2B human bronchial epithelial cells obtained from ATCC were plated at 100,000 cells per well of a 96-well plate one day prior to the experiment. The BEAS-2B assay was run in complete growth medium (bronchial epithelial basal medium plus bulletkit; Lonza; Basel, Switzerland).
# Test compounds were serially diluted 1:2 in DMSO and then diluted 1:50 in medium just before use. Diluted compounds were added to the cells, for a final DMSO concentration of 0.2%, and incubated for 30 min (for the TF-1 assay) or 1 hr (for the BEAS-2B assay) at 37° C. Then, cells were stimulated with human recombinant cytokine at their respective EC90 concentrations, as previously determined for each individual lot. Cells were stimulated with IL-13 (R&D Systems, Minneapolis, Minn.) for 15 min at 37° C. The TF-1 cell reactions were stopped by the direct addition of 10× lysis buffer (Cell Signaling Technologies, Danvers, Mass.), whereas the BEAS-2B cell incubations were halted by the removal of medium and addition of 1× lysis buffer. The resultant samples were frozen in the plates at −80° C. Compound mediated inhibition of STAT6 phosphorylation was measured in the cell lysates using MesoScale Discovery (MSD) technology (Gaithersburg, Md.).
# [2] = biological target: isolated recombinant JAK1 kinase domain (Homo sapiens (Human), UniProt P23458); assay: JAK1 enzyme assay (Caliper LabChip, peptide phosphorylation); assay type: biochemical; conditions: isolated recombinant JAK1 kinase domain, 25 μM ATP
# [3] = biological target: isolated recombinant JAK2 kinase domain (Homo sapiens (Human), UniProt O60674); assay: JAK2 enzyme assay (Caliper LabChip, peptide phosphorylation); assay type: biochemical; conditions: 25 μM ATP
# isolated recombinant JAK2 kinase domain, sequence (O60674 849-1124): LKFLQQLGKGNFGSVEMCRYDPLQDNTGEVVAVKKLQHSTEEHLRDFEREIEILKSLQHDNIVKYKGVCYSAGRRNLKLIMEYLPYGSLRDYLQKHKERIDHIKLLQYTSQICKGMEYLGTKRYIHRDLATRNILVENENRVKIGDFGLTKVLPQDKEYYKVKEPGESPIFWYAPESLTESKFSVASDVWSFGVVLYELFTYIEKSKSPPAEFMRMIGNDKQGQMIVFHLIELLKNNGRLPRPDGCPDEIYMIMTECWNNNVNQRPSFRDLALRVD
# isolated recombinant JAK1 kinase domain, sequence (P23458 875-1153): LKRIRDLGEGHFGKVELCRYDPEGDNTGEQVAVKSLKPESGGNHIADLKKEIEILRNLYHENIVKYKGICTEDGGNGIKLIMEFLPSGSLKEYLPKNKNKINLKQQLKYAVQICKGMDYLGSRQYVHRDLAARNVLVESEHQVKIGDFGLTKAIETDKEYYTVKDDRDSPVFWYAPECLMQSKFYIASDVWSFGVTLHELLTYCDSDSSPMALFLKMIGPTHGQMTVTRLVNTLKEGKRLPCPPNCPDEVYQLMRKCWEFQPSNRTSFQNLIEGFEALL
Structure (SMILES),EC50 [1] [nM],Ki [2] [nM],Ki [3] [nM]
"CN1C[C@H]2CCN(C(=O)Cn3cc(NC(=O)c4cnn5cccnc45)c(-c4cc(Cl)ccc4OC(F)F)n3)C[C@H]2C1 [Example 25, N-[1-[2-[(3aR,7aS)-2-methyl-3,3a,4,6,7,7a-hexahydro-1H-pyrrolo[3,4-c]pyridin-5-yl]-2-oxo-ethyl]-3-[5-chloro-2-(difluoromethoxy)phenyl]pyrazol-4-yl]pyrazolo[1,5-a]pyrimidine-3-carboxamide]",121,0.66,1.61
"CS(=O)(=O)CCCN1C[C@@H]2CN(C(=O)Cn3cc(NC(=O)c4cnn5cccnc45)c(-c4cc(Cl)ccc4OC(F)F)n3)C[C@@H]2C1 [Example 27, N-[1-[2-[(3aS,6aR)-2-(3-methylsulfonylpropyl)-1,3,3a,4,6,6a-hexahydropyrrolo[3,4-c]pyrrol-5-yl]-2-oxo-ethyl]-3-[5-chloro-2-(difluoromethoxy)phenyl]pyrazol-4-yl]pyrazolo[1,5-a]pyrimidine-3-carboxamide]",144,0.46,0.55
"CS(=O)(=O)CCN1C[C@@H]2CN(C(=O)Cn3cc(NC(=O)c4cnn5cccnc45)c(-c4cc(Cl)ccc4OC(F)F)n3)C[C@@H]2C1 [Example 31, N-[1-[2-[(3aS,6aR)-2-(2-methylsulfonylethyl)-1,3,3a,4,6,6a-hexahydropyrrolo[3,4-c]pyrrol-5-yl]-2-oxo-ethyl]-3-[5-chloro-2-(difluoromethoxy)phenyl]pyrazol-4-yl]pyrazolo[1,5-a]pyrimidine-3-carboxamide]",102,0.37,0.53

# Molecules with a lower EC50 [1], results first:
EC50 [1] [nM],Ki [2] [nM],Ki [3] [nM],Structure (SMILES)
4.9,0.78,2.02,"CN1CC[C@@H]2[C@@H](CCN2C(=O)Cn2cc(NC(=O)c3cnn4cccnc34)c(-c3cc(Cl)ccc3OC(F)F)n2)C1 [Example 24, N-[1-[2-[(3aS,7aR)-5-methyl-3,3a,4,6,7,7a-hexahydro-2H-pyrrolo[3,2-c]pyridin-1-yl]-2-oxo-ethyl]-3-[5-chloro-2-(difluoromethoxy)phenyl]pyrazol-4-yl]pyrazolo[1,5-a]pyrimidine-3-carboxamide]"
6.2,0.77,0.94,"O=C(Nc1cn(CC(=O)N2C[C@H]3CN(CC4CCOCC4)C[C@H]3C2)nc1-c1cc(Cl)ccc1OC(F)F)c1cnn2cccnc12 [Example 26, N-[1-[2-[(3aR,6aS)-2-(tetrahydropyran-4-ylmethyl)-1,3,3a,4,6,6a-hexahydropyrrolo[3,4-c]pyrrol-5-yl]-2-oxo-ethyl]-3-[5-chloro-2-(difluoromethoxy)phenyl]pyrazol-4-yl]pyrazolo[1,5-a]pyrimidine-3-carboxamide]"
5.6,1.01,1.76,"CN1CCC2CN(C(=O)Cn3cc(NC(=O)c4cnn5cccnc45)c(-c4cc(Cl)ccc4OC(F)F)n3)CCC21 (stereo not drawn) [Example 29, N-[3-[5-chloro-2-(difluoromethoxy)phenyl]-1-[2-(1-methyl-3,3a,4,6,7,7a-hexahydro-2H-pyrrolo[3,2-c]pyridin-5-yl)-2-oxo-ethyl]pyrazol-4-yl]pyrazolo[1,5-a]pyrimidine-3-carboxamide]"
98.5,0.46,0.5,"O=C(Nc1cn(CC(=O)N2C[C@H]3CN(CCCN4CCOC4=O)C[C@H]3C2)nc1-c1cc(Cl)ccc1OC(F)F)c1cnn2cccnc12 [Example 32, N-[1-[2-[(3aS,6aR)-2-[3-(2-oxooxazolidin-3-yl)propyl]-1,3,3a,4,6,6a-hexahydropyrrolo[3,4-c]pyrrol-5-yl]-2-oxo-ethyl]-3-[5-chloro-2-(difluoromethoxy)phenyl]pyrazol-4-yl]pyrazolo[1,5-a]pyrimidine-3-carboxamide]"
